Literature values, collected in US20180200206A1, “[…] METHODS AND COMPOSITIONS FOR TREATING BREAST DISORDERS” (ATOSSA GENETICS INC., priority 2015, published 2018).

Biological target: estrogen receptor (Homo sapiens, UniProt P03372)
Details: more potent than tamoxifen; stated as known in the art

estrogen receptor, sequence (P03372 whole entry): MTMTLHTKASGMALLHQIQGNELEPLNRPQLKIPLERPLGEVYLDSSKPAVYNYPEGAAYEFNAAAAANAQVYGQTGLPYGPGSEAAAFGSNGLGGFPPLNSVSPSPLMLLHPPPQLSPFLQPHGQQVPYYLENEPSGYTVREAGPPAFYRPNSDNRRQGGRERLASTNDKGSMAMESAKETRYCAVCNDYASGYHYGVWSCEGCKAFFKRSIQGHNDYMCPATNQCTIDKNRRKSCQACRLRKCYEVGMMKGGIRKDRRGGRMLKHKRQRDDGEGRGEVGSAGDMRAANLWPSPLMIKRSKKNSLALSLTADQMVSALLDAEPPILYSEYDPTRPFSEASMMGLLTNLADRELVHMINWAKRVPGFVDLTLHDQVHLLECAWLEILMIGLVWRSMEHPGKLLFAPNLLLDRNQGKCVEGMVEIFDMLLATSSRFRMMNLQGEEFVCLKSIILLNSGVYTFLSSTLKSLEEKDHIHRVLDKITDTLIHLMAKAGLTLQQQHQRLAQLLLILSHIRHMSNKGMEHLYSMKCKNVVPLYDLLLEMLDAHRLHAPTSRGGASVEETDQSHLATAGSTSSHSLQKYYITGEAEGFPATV

- potency relative to tamoxifen: 100 times
Substance: 4-hydroxytamoxifen
